Laboratory results reported in ChEMBL document CHEMBL1201862, “PubChem BioAssay data set” (2004).
The source made the active and inactive calls.

Columns and labels:
[1] = molecular target: Heat shock protein HSP 90-alpha (Homo sapiens, UniProt P07900); format: functional, organism-based
[2] = molecular target: T1, Type-1 angiotensin II receptor (Homo sapiens, UniProt P30556); test: antagonism of angiotensin II type 1 receptor – cell-based, uHTS hits, selectivity assay for APJ receptor antagonist project, dose response (AID 463214); format: functional;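 further: antagonist potency against angiotensin II stimulated AT1 response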
T1 sequence (P30556 whole entry): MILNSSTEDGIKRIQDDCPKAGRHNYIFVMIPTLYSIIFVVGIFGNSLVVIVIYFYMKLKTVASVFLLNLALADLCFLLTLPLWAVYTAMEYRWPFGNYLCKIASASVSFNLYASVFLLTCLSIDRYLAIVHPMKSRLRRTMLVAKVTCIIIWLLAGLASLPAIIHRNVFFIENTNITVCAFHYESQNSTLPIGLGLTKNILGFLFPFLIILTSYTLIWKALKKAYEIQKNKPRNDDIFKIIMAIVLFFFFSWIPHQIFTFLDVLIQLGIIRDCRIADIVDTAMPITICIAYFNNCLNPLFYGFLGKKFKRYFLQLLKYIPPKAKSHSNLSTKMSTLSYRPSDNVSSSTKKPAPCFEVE

Beta-galactosidase = Beta-galactosidase (Escherichia coli, UniProt Q8VNN2); test: PubChem AID 485352; format: functional
Sequence of Beta-galactosidase (Q8VNN2 whole entry): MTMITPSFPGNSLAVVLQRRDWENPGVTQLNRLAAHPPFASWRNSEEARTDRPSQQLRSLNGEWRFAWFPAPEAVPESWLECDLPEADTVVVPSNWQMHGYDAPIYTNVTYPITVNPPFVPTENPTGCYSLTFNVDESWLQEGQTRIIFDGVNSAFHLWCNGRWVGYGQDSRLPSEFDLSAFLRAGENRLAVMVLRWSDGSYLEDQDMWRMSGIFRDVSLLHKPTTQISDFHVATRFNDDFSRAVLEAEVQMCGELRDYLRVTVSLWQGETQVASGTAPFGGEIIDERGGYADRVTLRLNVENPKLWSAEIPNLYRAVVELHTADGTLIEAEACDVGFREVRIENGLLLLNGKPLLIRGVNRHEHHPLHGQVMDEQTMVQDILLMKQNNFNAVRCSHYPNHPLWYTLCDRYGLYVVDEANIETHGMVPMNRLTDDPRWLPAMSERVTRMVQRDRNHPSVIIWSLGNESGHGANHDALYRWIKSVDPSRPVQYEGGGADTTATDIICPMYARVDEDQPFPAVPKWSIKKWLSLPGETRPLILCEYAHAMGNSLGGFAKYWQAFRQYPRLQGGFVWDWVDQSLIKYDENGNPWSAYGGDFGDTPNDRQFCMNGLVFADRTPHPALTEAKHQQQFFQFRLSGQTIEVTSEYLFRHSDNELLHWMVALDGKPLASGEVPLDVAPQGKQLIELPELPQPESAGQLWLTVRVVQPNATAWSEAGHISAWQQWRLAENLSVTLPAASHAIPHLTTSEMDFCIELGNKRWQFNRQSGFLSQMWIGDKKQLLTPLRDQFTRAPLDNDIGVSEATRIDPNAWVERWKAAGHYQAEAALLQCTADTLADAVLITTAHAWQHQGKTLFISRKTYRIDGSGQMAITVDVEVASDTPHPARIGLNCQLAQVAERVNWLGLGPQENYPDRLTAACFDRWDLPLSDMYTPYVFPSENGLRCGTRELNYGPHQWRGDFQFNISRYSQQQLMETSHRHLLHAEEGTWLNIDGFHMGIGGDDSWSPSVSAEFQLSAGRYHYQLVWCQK

[3] = viability loss in THP-1 monocytes – THP-1 cells, cytotoxicity control for Vif-APOBEC3G degradation inhibitor project, dose response (AID 1117359); format: functional; settings: THP-1
Cytochrome P450 1A2 = molecular target: T2, Cytochrome P450 1A2 (Homo sapiens, UniProt P05177);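 further: PubChem cytochrome P450 panel assay, CYP1A2 panel member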
T2 sequence (P05177 whole entry): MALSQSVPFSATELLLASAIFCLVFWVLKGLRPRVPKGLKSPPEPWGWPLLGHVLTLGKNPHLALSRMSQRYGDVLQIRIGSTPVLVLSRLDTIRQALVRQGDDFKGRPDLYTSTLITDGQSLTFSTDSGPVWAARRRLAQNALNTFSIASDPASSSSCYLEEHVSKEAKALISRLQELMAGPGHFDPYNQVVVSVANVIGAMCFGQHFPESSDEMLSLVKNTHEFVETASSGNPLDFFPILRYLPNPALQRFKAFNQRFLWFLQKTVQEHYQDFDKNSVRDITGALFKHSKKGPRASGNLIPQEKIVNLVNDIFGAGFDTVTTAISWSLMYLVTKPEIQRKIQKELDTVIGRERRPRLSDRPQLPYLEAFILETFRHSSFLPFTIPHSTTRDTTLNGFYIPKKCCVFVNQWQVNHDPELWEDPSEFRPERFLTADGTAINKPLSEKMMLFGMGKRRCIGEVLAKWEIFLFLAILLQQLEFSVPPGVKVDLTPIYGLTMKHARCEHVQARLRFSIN

[4] = molecular target: Adenosylmethionine-8-amino-7-oxononanoate aminotransferase (Mycobacterium tuberculosis, UniProt P9WQ81); test: Mycobacterium tuberculosis BioA enzyme inhibitor Measured in Biochemical System Using Plate Reader - 2163-02_Inhibitor_Dose_CherryPick_Activity.; format: functional, Mycobacterium tuberculosis UT205
Sequence of Adenosylmethionine-8-amino-7-oxononanoate aminotransferase (P9WQ81 whole entry): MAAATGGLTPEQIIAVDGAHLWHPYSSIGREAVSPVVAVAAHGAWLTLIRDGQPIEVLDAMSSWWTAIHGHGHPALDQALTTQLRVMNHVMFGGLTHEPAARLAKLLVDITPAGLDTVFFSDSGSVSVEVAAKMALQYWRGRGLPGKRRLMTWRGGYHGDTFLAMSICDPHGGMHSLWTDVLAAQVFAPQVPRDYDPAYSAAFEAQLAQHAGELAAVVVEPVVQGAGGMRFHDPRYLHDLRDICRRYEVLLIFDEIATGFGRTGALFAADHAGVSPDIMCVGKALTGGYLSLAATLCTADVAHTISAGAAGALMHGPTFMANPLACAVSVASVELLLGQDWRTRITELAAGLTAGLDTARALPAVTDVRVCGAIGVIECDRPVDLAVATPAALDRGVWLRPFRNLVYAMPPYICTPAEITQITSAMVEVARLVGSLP

Cytochrome P450 2C19 = Cytochrome P450 2C19 (Homo sapiens, UniProt P33261); test: Cytochrome panel assay with activity outcomes. Panel member name: p450-cyp2c19 Compounds with AC50 equal or less than 10 uM are considered active; format: functional; settings: read-out: AC50
Melanocortin receptor 4 = Melanocortin receptor 4 (Homo sapiens, UniProt P32245); format: functional, cell-based;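 further: Cell-based assay with luminescence read-out, confirmatory dose-response testing for agonist activity of biased ligands at MC4R; human U2OS cells with tagged receptor and beta-arrestin; potency of agonists that increase receptor coupling to beta-arrestin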
Sequence of Melanocortin receptor 4 (P32245 whole entry): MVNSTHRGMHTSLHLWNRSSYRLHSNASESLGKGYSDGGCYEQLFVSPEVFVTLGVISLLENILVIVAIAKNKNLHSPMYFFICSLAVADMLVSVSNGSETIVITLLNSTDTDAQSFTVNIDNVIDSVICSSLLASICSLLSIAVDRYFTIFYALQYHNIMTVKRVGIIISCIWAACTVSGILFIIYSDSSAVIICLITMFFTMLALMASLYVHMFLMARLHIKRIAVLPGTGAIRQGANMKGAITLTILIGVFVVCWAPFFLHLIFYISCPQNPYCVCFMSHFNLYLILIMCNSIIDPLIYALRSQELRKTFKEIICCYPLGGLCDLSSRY

[5] = molecular target: DNA repair and recombination protein RAD54-like (Homo sapiens, UniProt Q92698); test: RAD54 Holliday junction migration blockers – biochemical, fluorescence, cherry-picked samples, dose series, confirmation (AID 651657); format: functional
[6] = molecular target: Neurotensin receptor type 1 (Homo sapiens, UniProt P30989); format: functional;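 further: Image-based confirmatory dose-response assay measuring agonist activity at NTR1; NTR1-expressing U2OS osteosarcoma cells imaged for beta-arrestin GFP spot formation; agonist potency where compounds increase beta-arrestin recruitment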
Sequence of Neurotensin receptor type 1 (P30989 whole entry): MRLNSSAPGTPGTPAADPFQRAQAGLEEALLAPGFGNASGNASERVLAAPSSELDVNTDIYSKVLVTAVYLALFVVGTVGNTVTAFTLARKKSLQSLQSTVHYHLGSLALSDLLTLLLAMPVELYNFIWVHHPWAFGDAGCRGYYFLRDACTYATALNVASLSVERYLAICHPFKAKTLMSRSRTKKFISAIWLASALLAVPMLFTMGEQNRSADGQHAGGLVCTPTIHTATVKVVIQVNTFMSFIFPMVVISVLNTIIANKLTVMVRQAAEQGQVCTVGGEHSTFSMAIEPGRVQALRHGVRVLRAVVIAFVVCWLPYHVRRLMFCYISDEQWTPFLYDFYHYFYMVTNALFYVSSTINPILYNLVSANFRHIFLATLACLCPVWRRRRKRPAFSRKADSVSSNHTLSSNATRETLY

INS1 = test: INS-1E survival protection against cytokine death – cell-based, luminescence, retest, dose response (AID 449756); format: functional; settings: Rattus norvegicus;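 further: cell death triggered by IL-1 beta plus TNF-alpha plus IFN-gamma mixture; protective hits raise ATP signal compared with cytokine alone wells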
[7] = DRD fibroblast viability loss – cell-based, non-viral oncogenic, luminescence, dose response (AID 1934); format: functional; settings: Homo sapiens
[8] = viability of HCT116 lacking mutant beta-catenin – cell-based, human colon tumor, dose response (AID 1045); format: functional;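 further: HCT116 colon tumor cells with beta catenin knocked out; cells exposed to compound for 60 hours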
Protein RecA = molecular target: T3, Protein RecA (Mycobacterium tuberculosis, UniProt P9WHJ3); test: Fluorescence Cell-Free Homogeneous Dose Retest to Identify Inhibitors of RecA-Intein Splicing Activity. [Related pubchem assays (depositor defined):AID2097, AID2223, AID489010, AID492950]; format: functional
T3 sequence (P9WHJ3 whole entry): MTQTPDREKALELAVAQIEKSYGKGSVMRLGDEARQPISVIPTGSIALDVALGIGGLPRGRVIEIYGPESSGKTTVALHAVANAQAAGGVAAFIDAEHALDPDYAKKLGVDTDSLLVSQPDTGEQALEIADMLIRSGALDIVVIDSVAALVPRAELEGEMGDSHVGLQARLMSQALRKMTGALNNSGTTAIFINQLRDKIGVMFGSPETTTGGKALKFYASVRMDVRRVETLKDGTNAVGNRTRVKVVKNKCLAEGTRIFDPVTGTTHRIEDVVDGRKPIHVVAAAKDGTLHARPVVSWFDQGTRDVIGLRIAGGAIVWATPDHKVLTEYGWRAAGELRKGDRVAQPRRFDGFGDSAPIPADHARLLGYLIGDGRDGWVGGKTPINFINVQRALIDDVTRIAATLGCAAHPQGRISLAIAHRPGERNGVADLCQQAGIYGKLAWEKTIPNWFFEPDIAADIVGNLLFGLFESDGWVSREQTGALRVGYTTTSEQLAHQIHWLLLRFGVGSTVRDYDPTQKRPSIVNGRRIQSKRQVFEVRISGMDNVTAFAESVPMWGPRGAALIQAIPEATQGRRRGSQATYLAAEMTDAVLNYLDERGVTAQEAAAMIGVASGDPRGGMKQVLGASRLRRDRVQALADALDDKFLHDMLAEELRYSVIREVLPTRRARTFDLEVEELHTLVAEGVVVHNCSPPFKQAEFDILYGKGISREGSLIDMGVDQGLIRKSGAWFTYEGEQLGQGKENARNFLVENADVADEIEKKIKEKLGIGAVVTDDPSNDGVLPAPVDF

[9] = Fluorescence-based cell-based high throughput dose response assay for inhibitors of the interaction of nucleotide-binding oligomerization domain containing 2 (NOD2) and the receptor-interacting serine-threonine kinase 2 (RIPK2).; format: functional; settings: Homo sapiens
cells = format: functional
Beta Lactamase = Beta Lactamase (Pseudomonas aeruginosa, UniProt Q932Y6); test: BLA reporter interference, concentration series – BLA reporter cells, FRET fluorescence, artefact control for NOD2-RIPK2 interaction inhibitor project, dose response (AID 651552); format: functional, cell-based
Sequence of Beta Lactamase (Q932Y6 whole entry): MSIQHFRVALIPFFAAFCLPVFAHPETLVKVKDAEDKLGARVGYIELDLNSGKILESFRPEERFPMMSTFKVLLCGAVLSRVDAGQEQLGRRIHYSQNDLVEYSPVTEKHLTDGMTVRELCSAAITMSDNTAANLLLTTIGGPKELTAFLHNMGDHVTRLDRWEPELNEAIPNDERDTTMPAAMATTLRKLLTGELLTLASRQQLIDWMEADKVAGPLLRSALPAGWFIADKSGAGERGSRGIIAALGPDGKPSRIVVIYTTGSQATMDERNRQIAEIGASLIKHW

BJ [10] = test: BJ-TERT-LT-ST fibroblast viability loss – cell-based, RAS-independent, luminescence, dose response (AID 1935); format: functional; settings: Homo sapiens;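 further: BJ fibroblasts immortalized with TERT plus LT and ST oncogenes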
Vero = test: viability of Vero cells under compound – cytotoxicity control for flavivirus capping enzyme inhibitors (AID 588742); format: functional; settings: Chlorocebus sabaeus
BJ [11] = test: cells; format: functional, cell-based; settings: Homo sapiens
[12] = HepG2 cell cytotoxicity, dose response, cytotoxicity control for non-replicating M. tuberculosis project (AID 489018); format: functional; settings: Mycobacterium tuberculosis
[13] = molecular target: T4, Replicative DNA helicase DnaB (Mycobacterium tuberculosis, UniProt P9WMR3); test: DnaB intein splicing inhibitors, dose response, biochemical, cell-free fluorescence (AID 449749); format: functional
T4 sequence (P9WMR3 whole entry): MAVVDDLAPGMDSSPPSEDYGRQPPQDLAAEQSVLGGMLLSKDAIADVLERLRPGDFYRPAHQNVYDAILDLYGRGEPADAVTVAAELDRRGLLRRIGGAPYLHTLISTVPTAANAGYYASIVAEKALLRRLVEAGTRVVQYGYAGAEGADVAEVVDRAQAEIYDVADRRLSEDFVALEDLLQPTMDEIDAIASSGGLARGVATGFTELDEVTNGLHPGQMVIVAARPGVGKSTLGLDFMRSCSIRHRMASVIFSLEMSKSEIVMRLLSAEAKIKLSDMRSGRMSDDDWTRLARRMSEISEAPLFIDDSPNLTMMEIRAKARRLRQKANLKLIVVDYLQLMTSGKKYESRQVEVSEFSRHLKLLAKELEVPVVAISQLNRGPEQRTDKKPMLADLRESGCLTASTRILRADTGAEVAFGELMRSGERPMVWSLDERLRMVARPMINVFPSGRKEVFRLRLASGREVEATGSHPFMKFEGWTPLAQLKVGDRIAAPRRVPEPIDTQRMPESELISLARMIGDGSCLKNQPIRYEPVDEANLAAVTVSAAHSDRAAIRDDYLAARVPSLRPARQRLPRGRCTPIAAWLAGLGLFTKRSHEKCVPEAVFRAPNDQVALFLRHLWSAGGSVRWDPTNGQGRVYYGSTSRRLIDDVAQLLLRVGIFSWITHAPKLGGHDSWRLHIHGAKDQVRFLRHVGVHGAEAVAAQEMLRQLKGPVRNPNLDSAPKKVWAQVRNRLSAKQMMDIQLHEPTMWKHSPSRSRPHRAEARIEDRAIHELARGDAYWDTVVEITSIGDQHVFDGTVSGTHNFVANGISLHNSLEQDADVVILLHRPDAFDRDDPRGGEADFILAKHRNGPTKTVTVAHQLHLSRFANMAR

Genome polyprotein = Genome polyprotein (dengue virus type 2, UniProt P29990); test: flavivirus cap methylation enzyme inhibition – biochemical, confirmation dose response, primary screen (AID 588689); format: functional
[14] = Vero E6 cell cytotoxicity, dose response, cytotoxicity control for non-replicating M. tuberculosis project, secondary assay (AID 492998); format: functional, VeroE6; settings: Vero C1008
[15] = viability of PTEN-deleted HCT116 cells – cell-based, HCT116 PTEN knockout, dose response (AID 1047); format: functional;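 further: HCT116 colon tumor cells with PTEN knocked out; cells exposed to compound for 60 hours before readout; potency for loss of cell viability measured by luminescence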
[16] = THP-1 cell cytotoxicity, dose response, cytotoxicity control for non-replicating M. tuberculosis project (AID 489025); format: functional
H9c2 = test: cells; format: functional, cell-based; settings: Rattus norvegicus, H9c2, Myocardium;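 further: confirmatory concentration-response retest of ultra-high-throughput screening hits for modulation of myocardial damage; cell death induced by hydrogen peroxide oxidative stress; compound pretreatment for 60 min then peroxide exposure for 2 h; potency is for protecting the cells against peroxide damage rather than for killing them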
Fatty acid synthase [17] = molecular target: T5, Fatty acid synthase (Homo sapiens, UniProt P49327); test: inhibition of human FAS-TE enzyme activity – biochemical, kinetic fluorescence intensity, dose response (AID 624326); format: functional;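 further: rate of fluorescence rise from hydrolysis of a fluorogenic O-methyl fluorescein ester substrate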
T5 sequence (P49327 whole entry): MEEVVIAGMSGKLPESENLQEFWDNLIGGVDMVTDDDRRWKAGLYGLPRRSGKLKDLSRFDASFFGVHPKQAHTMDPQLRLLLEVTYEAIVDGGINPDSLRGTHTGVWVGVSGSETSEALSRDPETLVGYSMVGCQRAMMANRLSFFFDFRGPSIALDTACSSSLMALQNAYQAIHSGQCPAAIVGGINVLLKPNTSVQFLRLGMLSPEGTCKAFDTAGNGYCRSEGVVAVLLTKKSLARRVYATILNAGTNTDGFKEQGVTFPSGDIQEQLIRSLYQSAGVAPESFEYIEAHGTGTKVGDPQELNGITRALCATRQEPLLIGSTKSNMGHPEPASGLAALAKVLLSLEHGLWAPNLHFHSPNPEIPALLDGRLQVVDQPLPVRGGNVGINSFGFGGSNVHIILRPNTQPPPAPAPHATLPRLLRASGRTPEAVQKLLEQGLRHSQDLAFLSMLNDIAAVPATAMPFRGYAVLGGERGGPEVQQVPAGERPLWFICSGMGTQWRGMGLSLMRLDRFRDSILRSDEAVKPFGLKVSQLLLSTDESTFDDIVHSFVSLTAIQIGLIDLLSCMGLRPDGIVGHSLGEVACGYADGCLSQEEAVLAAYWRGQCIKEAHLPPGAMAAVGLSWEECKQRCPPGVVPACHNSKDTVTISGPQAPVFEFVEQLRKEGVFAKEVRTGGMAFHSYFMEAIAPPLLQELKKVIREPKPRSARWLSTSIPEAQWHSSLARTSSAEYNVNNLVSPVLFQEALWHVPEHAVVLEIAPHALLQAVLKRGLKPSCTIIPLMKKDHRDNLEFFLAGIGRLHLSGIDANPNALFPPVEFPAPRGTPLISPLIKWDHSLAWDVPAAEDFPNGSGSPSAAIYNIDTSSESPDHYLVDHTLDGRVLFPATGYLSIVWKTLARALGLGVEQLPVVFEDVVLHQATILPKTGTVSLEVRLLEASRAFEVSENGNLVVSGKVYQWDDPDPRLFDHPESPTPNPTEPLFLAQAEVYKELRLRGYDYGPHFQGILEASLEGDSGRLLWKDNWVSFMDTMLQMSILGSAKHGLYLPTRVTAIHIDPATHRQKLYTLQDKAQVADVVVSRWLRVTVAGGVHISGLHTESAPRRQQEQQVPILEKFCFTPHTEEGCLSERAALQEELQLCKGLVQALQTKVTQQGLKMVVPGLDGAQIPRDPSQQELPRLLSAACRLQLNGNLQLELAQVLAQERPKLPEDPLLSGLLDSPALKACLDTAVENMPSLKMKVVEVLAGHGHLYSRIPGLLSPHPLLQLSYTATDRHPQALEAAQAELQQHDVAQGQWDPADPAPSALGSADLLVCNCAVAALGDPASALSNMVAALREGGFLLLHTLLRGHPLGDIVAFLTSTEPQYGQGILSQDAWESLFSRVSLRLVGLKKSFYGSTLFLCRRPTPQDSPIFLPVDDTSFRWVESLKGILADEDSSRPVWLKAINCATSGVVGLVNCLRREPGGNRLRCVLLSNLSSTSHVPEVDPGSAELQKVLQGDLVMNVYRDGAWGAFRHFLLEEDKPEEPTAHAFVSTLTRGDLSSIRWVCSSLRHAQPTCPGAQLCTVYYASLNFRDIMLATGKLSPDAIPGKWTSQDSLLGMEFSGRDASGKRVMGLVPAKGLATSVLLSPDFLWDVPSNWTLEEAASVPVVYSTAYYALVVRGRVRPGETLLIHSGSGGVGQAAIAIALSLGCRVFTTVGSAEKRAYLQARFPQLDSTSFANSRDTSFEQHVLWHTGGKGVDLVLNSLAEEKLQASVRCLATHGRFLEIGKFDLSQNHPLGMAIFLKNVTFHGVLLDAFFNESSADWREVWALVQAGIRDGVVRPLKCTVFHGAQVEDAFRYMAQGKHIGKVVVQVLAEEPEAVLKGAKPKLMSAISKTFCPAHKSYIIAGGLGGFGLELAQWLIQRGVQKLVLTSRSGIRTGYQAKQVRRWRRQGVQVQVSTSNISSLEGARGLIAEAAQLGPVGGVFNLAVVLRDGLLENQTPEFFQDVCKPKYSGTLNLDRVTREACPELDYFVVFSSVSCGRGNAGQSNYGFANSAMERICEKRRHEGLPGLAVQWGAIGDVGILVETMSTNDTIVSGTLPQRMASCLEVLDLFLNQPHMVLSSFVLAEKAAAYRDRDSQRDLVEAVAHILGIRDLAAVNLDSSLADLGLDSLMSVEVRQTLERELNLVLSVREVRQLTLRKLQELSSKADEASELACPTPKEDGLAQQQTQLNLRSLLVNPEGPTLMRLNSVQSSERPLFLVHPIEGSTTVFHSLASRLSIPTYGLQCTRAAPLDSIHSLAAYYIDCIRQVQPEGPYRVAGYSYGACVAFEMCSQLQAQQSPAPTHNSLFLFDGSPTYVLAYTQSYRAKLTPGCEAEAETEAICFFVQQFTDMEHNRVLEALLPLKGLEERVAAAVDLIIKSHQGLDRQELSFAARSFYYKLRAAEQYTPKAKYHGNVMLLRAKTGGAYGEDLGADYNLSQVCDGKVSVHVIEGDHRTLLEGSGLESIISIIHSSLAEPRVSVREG

Fatty acid synthase [18] = molecular target: T5, Fatty acid synthase; test: inhibition of human FAS-TE enzyme activity – biochemical, endpoint fluorescence intensity, uHTS hits, dose response (AID 624327); format: functional;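 further: fluorescence from hydrolysis of an O-methyl fluorescein acyl ester substrate by the enzyme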
[19] = molecular target: T6, Low molecular weight phosphotyrosine protein phosphatase (Homo sapiens, UniProt P24666); format: functional; settings: read-out: IC50_Mean;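 further: Dose-response confirmation assay measuring inhibition of LMPTP enzyme activity by fluorescence intensity read-out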
T6 sequence (P24666 whole entry): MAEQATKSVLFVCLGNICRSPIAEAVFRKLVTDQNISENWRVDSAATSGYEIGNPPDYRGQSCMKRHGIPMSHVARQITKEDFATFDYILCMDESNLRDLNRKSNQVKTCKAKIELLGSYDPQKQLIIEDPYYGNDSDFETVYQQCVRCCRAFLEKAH

Cc1ccc(C(C[N+](=O)[O-])Sc2ccc(N)cc2)cc1 (stereo not given)
AC50 [1]: 4.99 µM (active)
IC50 [2]: 16.9 µM (active)
EC50 (Beta-galactosidase): 31.3 µM (active)
CC50 [3]: > 40 µM (active)

Cc1cc(/C=C(/C#N)C(=O)Nc2ccccc2)c(C)n1-c1cccnc1
AC50 (Cytochrome P450 1A2): 1.78 µM (inconclusive)
AC50 [4]: 0.306 µM (active)
AC50 (Cytochrome P450 2C19): 2 µM (inconclusive)

COc1ccc(COc2ccsc2C(=O)Nc2ccc(Cl)c(Cl)c2)cc1
EC50 (Melanocortin receptor 4): > 89.2 µM (inactive)

COc1ccc(OC)c2c(C)cc(NCCN3CCOCC3)nc12
AC50 [5]: 37.6 µM (active)

CC1=NNC(=O)/C1=C\c1cn(-c2ccccc2)nc1-c1cccs1
EC50 [6]: 5.14 µM (active)
AC50 (INS1): 7.34 µM (active)
AC50 [1]: 1.87 µM (active)
EC50 [7]: 5.32 µM (active)
EC50 [8]: 7.11 µM (active)
EC50 (Protein RecA): 1.44 µM (active)
IC50 [9]: 1.55 µM (active)
IC50 (cells): 24.8 µM (active)
IC50 (Beta Lactamase): 49.8 µM (inactive)
EC50 (BJ [10]): 13 µM (active)
CC50 (Vero): 10.9 µM (active)
EC50 (BJ [11]): 4.55 µM (inconclusive)
CC50 [12]: 9.49 µM (active)
AC50 [13]: 3.97 µM (active)
IC50 (Genome polyprotein): > 100 µM (active)
CC50 [14]: 9.79 µM (active)
EC50 [15]: 7.38 µM (active)
CC50 [16]: 7.31 µM (active)

Cc1cccc(-n2c(SCC(=O)N(C)C3CCS(=O)(=O)C3)nc3ccccc3c2=O)c1C (stereo not given)
AC50 [4]: 3.13 µM (active)

COc1cccc(-c2cnc3c(NC(C)=O)cc(-c4cc(OC)c(OC)c(OC)c4)cn23)c1
EC50 (Melanocortin receptor 4): > 89.2 µM (inactive)
IC50 (H9c2): > 79 µM (inactive)

CCOC(=O)[C@]12Cc3cc(C)ccc3[C@H]1N(C1CCCCC1)C(=O)c1ccccc12
IC50 [9]: 2.28 µM (active)
IC50 (Beta Lactamase): 39 µM (inactive)
IC50 (Fatty acid synthase [17]): 6.17 µM (active)
IC50 (Fatty acid synthase [18]): 6.98 µM (active)

CCOc1ccc(C(=O)N/N=C/c2cc([N+](=O)[O-])cs2)cc1
IC50 [19]: 14.4 µM (active)
